Source: ChEMBL document CHEMBL1143494 (Bioorg Med Chem Lett, 2005)
Each block holds one compound with its values, some of them ahead of it.

What was measured:
[1] = target: T1, A disintegrin and metalloproteinase with thrombospondin motifs 4 (Homo sapiens, UniProt O75173); experiment: Inhibitory concentration against Aggrecanase 1
T1 sequence (O75173 whole entry): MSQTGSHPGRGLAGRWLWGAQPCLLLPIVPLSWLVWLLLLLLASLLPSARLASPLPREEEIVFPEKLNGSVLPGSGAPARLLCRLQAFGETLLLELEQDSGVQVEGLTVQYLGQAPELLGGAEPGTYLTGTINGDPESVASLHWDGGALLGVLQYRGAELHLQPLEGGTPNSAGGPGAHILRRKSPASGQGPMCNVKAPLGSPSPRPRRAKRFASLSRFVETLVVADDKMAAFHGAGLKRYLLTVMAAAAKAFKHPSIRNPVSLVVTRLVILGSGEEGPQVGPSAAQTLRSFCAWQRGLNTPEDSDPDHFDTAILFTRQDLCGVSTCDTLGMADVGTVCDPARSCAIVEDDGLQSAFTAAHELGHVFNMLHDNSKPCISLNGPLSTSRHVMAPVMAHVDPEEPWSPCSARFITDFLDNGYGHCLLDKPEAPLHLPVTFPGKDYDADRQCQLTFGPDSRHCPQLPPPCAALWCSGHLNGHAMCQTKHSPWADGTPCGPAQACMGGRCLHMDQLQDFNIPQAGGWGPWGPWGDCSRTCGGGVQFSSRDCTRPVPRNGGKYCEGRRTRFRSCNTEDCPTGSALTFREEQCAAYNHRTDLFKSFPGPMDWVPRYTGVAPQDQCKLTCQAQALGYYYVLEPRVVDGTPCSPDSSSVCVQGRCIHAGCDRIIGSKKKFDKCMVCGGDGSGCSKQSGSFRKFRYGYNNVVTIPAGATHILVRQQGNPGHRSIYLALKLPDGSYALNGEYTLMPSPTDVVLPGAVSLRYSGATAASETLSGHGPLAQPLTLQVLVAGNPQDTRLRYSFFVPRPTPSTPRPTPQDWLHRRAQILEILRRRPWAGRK

[2] = target: Matrix metalloproteinase-9 (Homo sapiens) (UniProt P14780); experiment: Percent inhibition at 25 uM against MMP-9
[3] = target: T2, Disintegrin and metalloproteinase domain-containing protein 17 (Homo sapiens, UniProt P78536); experiment: Inhibitory concentration against TACE
Stromelysin-1 = Stromelysin-1 (Homo sapiens, UniProt P08254); experiment: Inhibitory concentration against MMP-3
Matrilysin = target: T3, Matrilysin (Homo sapiens, UniProt P09237); experiment: Inhibitory concentration against MMP-7
T3 sequence (P09237 whole entry): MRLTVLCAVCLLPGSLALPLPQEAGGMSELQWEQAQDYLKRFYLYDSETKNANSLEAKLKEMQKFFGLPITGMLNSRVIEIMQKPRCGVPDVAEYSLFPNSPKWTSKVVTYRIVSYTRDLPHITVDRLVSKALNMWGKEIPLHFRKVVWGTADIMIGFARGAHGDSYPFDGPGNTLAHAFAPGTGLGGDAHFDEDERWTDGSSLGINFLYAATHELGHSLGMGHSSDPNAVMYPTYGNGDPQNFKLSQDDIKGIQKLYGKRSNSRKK

Neutrophil collagenase = Neutrophil collagenase (Homo sapiens, UniProt P22894); experiment: Inhibitory concentration against MMP-8
Homo sapiens = organism: Homo sapiens; experiment: Ratio of the inhibitory concentration against MMP-2 to that of MMP-13
[4] = target: Matrix metalloproteinase-14 (Homo sapiens, UniProt P50281)
Description: Inhibitory concentration against MMP-14

[5] = target: T2, Disintegrin and metalloproteinase domain-containing protein 17; experiment: Percent inhibition at 25 uM against TACE
Interstitial collagenase = target: T4, Interstitial collagenase (Homo sapiens, UniProt P03956); experiment: Inhibitory concentration against MMP-1
T4 sequence (P03956 whole entry): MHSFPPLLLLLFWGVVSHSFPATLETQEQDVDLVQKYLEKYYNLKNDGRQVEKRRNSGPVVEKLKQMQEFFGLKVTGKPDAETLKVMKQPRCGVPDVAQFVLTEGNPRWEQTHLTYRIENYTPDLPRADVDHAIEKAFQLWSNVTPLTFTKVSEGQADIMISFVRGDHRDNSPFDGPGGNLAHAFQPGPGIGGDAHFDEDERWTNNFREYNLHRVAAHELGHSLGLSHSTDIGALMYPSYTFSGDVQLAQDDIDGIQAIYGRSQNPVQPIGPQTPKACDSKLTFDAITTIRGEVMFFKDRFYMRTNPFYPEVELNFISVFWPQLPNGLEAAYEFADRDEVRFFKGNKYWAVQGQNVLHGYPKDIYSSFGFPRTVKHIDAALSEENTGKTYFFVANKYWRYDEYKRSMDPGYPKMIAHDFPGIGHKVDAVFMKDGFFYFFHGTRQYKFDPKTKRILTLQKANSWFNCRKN

Collagenase 3 = Collagenase 3 (Homo sapiens, UniProt P45452); experiment: Inhibitory concentration against MMP-13
[6] = target: 72 kDa type IV collagenase (Homo sapiens, UniProt P08253); experiment: Inhibitory concentration against MMP-2
72 kDa type IV collagenase, sequence (P08253 whole entry): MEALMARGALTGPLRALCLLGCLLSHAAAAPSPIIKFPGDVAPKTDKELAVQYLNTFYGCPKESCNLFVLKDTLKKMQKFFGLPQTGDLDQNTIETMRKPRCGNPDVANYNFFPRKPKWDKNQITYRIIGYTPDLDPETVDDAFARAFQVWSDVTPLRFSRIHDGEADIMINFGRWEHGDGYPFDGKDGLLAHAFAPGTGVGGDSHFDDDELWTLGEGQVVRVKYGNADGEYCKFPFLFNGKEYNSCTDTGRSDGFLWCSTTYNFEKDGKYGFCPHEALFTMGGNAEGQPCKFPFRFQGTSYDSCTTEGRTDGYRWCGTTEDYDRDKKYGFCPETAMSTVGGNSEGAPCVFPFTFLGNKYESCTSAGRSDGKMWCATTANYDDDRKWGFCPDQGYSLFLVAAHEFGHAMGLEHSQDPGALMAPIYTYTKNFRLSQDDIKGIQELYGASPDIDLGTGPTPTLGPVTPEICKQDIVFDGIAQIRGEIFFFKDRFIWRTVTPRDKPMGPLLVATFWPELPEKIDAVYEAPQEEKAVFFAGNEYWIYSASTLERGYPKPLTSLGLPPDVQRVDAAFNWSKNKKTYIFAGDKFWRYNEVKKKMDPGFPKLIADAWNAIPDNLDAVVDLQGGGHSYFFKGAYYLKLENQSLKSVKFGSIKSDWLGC

Neutrophil collagenase, sequence (P22894 whole entry): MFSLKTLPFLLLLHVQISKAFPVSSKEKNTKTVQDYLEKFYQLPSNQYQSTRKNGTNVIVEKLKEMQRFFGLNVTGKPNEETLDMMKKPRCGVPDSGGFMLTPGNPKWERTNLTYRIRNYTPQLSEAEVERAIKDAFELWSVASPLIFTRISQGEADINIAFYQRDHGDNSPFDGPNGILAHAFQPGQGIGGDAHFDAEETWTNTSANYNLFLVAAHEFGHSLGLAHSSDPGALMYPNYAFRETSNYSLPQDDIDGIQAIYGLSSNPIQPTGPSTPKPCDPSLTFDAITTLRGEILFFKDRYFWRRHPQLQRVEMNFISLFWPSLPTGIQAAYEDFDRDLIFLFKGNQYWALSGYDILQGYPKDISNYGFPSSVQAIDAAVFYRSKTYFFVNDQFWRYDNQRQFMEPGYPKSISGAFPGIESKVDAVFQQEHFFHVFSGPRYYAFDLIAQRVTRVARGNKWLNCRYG
Stromelysin-1, sequence (P08254 whole entry): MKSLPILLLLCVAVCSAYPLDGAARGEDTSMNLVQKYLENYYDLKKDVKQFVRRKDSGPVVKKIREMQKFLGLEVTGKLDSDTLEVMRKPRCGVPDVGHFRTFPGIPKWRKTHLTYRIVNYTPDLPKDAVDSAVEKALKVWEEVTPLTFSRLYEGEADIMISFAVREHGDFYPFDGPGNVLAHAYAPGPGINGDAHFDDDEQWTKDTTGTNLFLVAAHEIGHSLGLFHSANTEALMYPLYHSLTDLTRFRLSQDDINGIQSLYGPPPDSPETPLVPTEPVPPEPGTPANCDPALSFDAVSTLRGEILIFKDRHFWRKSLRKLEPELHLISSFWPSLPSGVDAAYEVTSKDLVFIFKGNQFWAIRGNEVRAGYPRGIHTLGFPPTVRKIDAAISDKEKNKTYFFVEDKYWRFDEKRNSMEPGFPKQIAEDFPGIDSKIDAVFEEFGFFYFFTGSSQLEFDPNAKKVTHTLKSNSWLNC
Matrix metalloproteinase-9 (Homo sapiens), sequence (P14780 whole entry, the tested form may be a part): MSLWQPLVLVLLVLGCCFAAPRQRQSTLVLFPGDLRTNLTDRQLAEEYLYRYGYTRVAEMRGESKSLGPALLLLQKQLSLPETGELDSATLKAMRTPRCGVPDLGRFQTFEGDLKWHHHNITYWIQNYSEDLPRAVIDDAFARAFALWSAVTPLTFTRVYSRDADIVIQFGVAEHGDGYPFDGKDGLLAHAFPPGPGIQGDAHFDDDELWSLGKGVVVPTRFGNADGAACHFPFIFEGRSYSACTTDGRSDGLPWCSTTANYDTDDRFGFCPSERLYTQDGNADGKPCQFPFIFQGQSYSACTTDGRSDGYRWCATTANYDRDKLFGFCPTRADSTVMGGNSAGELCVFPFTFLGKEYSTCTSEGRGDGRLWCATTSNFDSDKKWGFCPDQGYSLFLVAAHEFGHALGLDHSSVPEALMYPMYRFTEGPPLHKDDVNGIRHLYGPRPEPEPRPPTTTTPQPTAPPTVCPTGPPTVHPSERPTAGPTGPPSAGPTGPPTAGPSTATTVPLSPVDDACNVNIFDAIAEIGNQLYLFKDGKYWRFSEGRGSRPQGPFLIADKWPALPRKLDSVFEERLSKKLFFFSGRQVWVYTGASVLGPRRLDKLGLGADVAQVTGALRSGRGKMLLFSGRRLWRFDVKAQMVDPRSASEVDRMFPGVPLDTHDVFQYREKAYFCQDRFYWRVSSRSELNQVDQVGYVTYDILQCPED
T2 sequence (P78536 whole entry, the tested form may be a part): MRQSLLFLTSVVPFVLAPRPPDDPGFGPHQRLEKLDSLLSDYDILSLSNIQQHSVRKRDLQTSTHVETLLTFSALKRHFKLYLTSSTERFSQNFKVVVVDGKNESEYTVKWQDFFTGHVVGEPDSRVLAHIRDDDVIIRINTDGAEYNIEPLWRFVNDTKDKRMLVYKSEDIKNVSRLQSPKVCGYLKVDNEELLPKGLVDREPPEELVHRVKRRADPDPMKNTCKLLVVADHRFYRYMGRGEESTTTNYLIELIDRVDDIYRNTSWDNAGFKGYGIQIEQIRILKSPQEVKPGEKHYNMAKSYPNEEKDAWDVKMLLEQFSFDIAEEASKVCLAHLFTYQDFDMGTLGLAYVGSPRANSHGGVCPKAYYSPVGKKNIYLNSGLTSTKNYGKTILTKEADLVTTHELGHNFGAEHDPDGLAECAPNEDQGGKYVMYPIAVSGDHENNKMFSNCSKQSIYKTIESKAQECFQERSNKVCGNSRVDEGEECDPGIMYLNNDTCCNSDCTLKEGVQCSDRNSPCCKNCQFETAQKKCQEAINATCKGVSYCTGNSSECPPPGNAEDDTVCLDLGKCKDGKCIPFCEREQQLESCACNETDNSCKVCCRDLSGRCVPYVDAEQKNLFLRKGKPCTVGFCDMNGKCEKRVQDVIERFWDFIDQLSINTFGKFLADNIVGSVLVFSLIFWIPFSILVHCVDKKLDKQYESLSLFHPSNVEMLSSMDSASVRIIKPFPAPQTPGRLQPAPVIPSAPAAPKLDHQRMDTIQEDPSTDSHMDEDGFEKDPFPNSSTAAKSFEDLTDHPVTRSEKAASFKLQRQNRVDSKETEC

Structure (SMILES): COc1c(Br)ccc2oc(C(=O)Nc3ccc(-c4ccc(S(=O)(=O)N[C@H](C(=O)O)C(C)C)cc4)cc3)c(C)c12
IC50 [1]: 5600 nM
inhibition [2]: 66%
IC50 [3]: 34000 nM
IC50 (Stromelysin-1): 144 nM
IC50 (Matrilysin): 866 nM
IC50 (Neutrophil collagenase): 73 nM
Ratio (Homo sapiens): 740
IC50 [4]: 15000 nM

Structure (SMILES): COc1c(I)ccc2oc(C(=O)Nc3ccc(-c4ccc(S(=O)(=O)N[C@H](C(=O)O)C(C)C)cc4)cc3)c(C)c12
IC50 [1]: 15000 nM
inhibition [5]: 38%
inhibition [2]: 51%
IC50 (Interstitial collagenase): 60000 nM
IC50 (Stromelysin-1): 1060 nM
IC50 (Matrilysin): 3010 nM
IC50 (Neutrophil collagenase): 404 nM
Ratio (Homo sapiens): 650
IC50 [4]: 30000 nM

Structure (SMILES): Cc1c(C(=O)Nc2ccc(-c3ccc(S(=O)(=O)N[C@H](C(=O)O)C(C)C)cc3)cc2)oc2ccccc12
Ratio (Homo sapiens): 44

Structure (SMILES): Cc1c(C(=O)Nc2ccc(-c3ccc(S(=O)(=O)N[C@H](C(=O)O)C(C)C)cc3)cc2)oc2ccc(Cl)c(OC(C)C)c12
IC50 [1]: 14300 nM
inhibition [5]: 98%
inhibition [2]: 51%
IC50 (Interstitial collagenase): 37100 nM
IC50 (Stromelysin-1): 1090 nM
IC50 (Matrilysin): 1640 nM
IC50 (Neutrophil collagenase): 110 nM
Ratio (Homo sapiens): 275
IC50 [4]: 50000 nM

Structure (SMILES): COc1c(Br)ccc2oc(C(=O)Nc3ccc(-c4ccc(S(=O)(=O)N[C@@H](C(=O)O)C(C)C)cc4)cc3)c(C)c12
IC50 (Collagenase 3): 3.4 nM
IC50 [6]: 688 nM
Ratio (Homo sapiens): 202

Structure (SMILES): CCc1ccc2oc(C(=O)Nc3ccc(-c4ccc(S(=O)(=O)N[C@H](C(=O)O)C(C)C)cc4)cc3)c(C)c2c1OC
IC50 [1]: > 15000 nM
inhibition [5]: 43%
inhibition [2]: 64%
IC50 (Interstitial collagenase): 28000 nM
IC50 (Stromelysin-1): 561 nM
IC50 (Matrilysin): 1260 nM
IC50 (Neutrophil collagenase): 101 nM
Ratio (Homo sapiens): 660
IC50 [4]: 30000 nM

Structure (SMILES): Cc1c(C(=O)Nc2ccc(-c3ccc(S(=O)(=O)N[C@@H](C(=O)O)C(C)C)cc3)cc2)oc2ccccc12
IC50 (Collagenase 3): 17 nM
IC50 [6]: 164 nM
Ratio (Homo sapiens): 10

Structure (SMILES): Cc1c(C(=O)Nc2ccc(-c3ccc(S(=O)(=O)N[C@H](C(=O)O)C(C)C)cc3)cc2)oc2ccc(Br)cc12
Ratio (Homo sapiens): 27

Structure (SMILES): COc1c(C)ccc2oc(C(=O)Nc3ccc(-c4ccc(S(=O)(=O)N[C@H](C(=O)O)C(C)C)cc4)cc3)c(C)c12
IC50 [1]: 8600 nM
inhibition [5]: 39%
inhibition [2]: 76%
IC50 (Interstitial collagenase): 37100 nM
IC50 (Stromelysin-1): 442 nM
IC50 (Matrilysin): 534 nM
IC50 (Neutrophil collagenase): 52 nM
Ratio (Homo sapiens): 330
IC50 [4]: 15000 nM

Structure (SMILES): CC(C)[C@H](NS(=O)(=O)c1ccc(-c2ccc(NC(=O)c3cc4cc(Br)ccc4o3)cc2)cc1)C(=O)O
IC50 (Collagenase 3): 0.61 nM
Ratio (Homo sapiens): 1

Structure (SMILES): CCc1ccc2oc(C(=O)Nc3ccc(-c4ccc(S(=O)(=O)N[C@H](C(=O)O)C(C)C)cc4)cc3)c(C)c2c1O
IC50 [1]: 4400 nM
inhibition [5]: 42%
inhibition [2]: 55%
IC50 (Interstitial collagenase): 23400 nM
IC50 (Stromelysin-1): 492 nM
IC50 (Matrilysin): 458 nM
IC50 (Neutrophil collagenase): 94 nM
Ratio (Homo sapiens): 250
IC50 [4]: 15800 nM

Structure (SMILES): COc1cccc2oc(C(=O)Nc3ccc(-c4ccc(S(=O)(=O)N[C@H](C(=O)O)C(C)C)cc4)cc3)c(C)c12
Ratio (Homo sapiens): 110

Structure (SMILES): COc1cccc2oc(C(=O)Nc3ccc(-c4ccc(S(=O)(=O)N[C@H](C(=O)O)C(C)C)cc4)cc3)cc12
Ratio (Homo sapiens): 7

Other lines, results leading:

Ratio (Homo sapiens): 260
Structure (SMILES): CCc1ccc2oc(C(=O)Nc3ccc(-c4ccc(S(=O)(=O)N[C@H](C(=O)O)C(C)C)cc4)cc3)c(C)c2c1OC(C)C

IC50 (Collagenase 3): 55 nM
Ratio (Homo sapiens): 32
Structure (SMILES): CCc1c(C(=O)Nc2ccc(-c3ccc(S(=O)(=O)N[C@H](C(=O)O)C(C)C)cc3)cc2)oc2ccccc12

IC50 (Collagenase 3): 7.8 nM
IC50 [6]: 1410 nM
Ratio (Homo sapiens): 180
Structure (SMILES): COc1c(CO)ccc2oc(C(=O)Nc3ccc(-c4ccc(S(=O)(=O)N[C@H](C(=O)O)C(C)C)cc4)cc3)c(C)c12

Ratio (Homo sapiens): 20
Structure (SMILES): CC(=O)c1ccc2oc(C(=O)Nc3ccc(-c4ccc(S(=O)(=O)N[C@H](C(=O)O)C(C)C)cc4)cc3)c(C)c2c1O

Ratio (Homo sapiens): 65
Structure (SMILES): CCc1ccc2oc(C(=O)Nc3ccc(-c4ccc(S(=O)(=O)N[C@H](C(=O)O)C(C)C)cc4)cc3)c(C)c2c1OCc1ccccc1

Ratio (Homo sapiens): 175
Structure (SMILES): COc1c(C#N)ccc2oc(C(=O)Nc3ccc(-c4ccc(S(=O)(=O)N[C@H](C(=O)O)C(C)C)cc4)cc3)c(C)c12

Ratio (Homo sapiens): 785
Structure (SMILES): COc1c(Cl)ccc2oc(C(=O)Nc3ccc(-c4ccc(S(=O)(=O)N[C@H](C(=O)O)C(C)C)cc4)cc3)c(C)c12

IC50 (Collagenase 3): 0.4 nM
IC50 [6]: 7.1 nM
Ratio (Homo sapiens): 18
Structure (SMILES): COc1c(Br)ccc2oc(C(=O)Nc3ccc(-c4ccc(S(=O)(=O)N[C@H](C(=O)O)C(C)C)cc4)cc3)cc12

IC50 [6]: 4.6 nM
Structure (SMILES): CC(C)[C@@H](NS(=O)(=O)c1ccc(-c2ccc(NC(=O)c3cc4ccccc4o3)cc2)cc1)C(=O)O

IC50 [6]: 1200 nM
Ratio (Homo sapiens): 6
Structure (SMILES): CC(C)[C@H](NS(=O)(=O)c1ccc(-c2ccc(NC(=O)c3oc4ccccc4c3-c3ccccc3)cc2)cc1)C(=O)O
